{"source": "paper PMC11358443", "about": "“Polymodal K^+ channel modulation contributes to dual analgesic and anti-inflammatory actions of traditional botanical medicines” (Communications Biology, 2024)", "key": {"Kv1.1 [1]": {"molecular_target": "T1, Kv1.1 (Homo sapiens, UniProt Q09470)", "T1 sequence (Q09470 whole entry)": "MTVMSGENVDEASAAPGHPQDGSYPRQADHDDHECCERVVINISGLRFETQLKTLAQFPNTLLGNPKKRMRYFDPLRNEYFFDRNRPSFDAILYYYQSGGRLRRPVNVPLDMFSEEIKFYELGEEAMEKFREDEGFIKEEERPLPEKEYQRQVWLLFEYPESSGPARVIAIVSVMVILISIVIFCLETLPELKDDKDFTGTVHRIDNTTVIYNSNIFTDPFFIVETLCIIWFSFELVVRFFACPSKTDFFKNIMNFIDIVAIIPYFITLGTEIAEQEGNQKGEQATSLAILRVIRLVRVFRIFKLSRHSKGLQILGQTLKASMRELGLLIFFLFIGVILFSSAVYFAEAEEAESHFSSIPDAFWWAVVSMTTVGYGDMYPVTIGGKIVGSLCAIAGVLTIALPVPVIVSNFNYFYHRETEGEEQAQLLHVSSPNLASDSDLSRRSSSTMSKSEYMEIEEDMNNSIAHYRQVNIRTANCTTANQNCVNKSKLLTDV", "experiment": "TEVC electrophysiology, Xenopus oocytes expressing Kv1.1", "format": "cell-based", "details": "100 µM; for Slope / V0.5 Normalized tail current / V0.5 non-normalized tail current: paired control in same table", "protocol": "(§1) We generated human potassium channel cRNA transcripts with the mMessage mMachine kit (Thermo Fisher Scientific, Waltham, MA, USA) according to manufacturer’s instructions, after vector linearization, from cDNA sub-cloned into expression vectors (pTLNx, pXOOM and pMAX). We injected Xenopus laevis oocytes (Xenoocyte, Dexter, MI, USA) with the channel cRNAs (0.5–10 ng) and incubated the oocytes at 16 °C for 1–4 days prior to electrophysiological recording.\n(§2) We performed TEVC at 20–23 °C with an OC-725C amplifier (Warner Instruments, Hamden, CT, USA) and pClamp10 software. Chemicals for recording and oocyte storage solutions were from Sigma-Aldrich (St. Louis, MO). Bath solution contained (in mM): 96 NaCl, 4 KCl, 1 MgCl2, 1 CaCl2, 10 HEPES (pH 7.6). Pipettes were 1–2 MΩ resistance when filled with 3 M KCl. We recorded currents in response to voltage pulses between −120 mV or −80 mV and +40 mV at 10 mV intervals from a holding potential of −80 mV, to yield current–voltage relationships and examine activation kinetics. We recorded and analyzed data using Clampfit (Molecular Devices, Sunnyvale, CA, USA) and Graphpad Prism software (GraphPad, San Diego, CA, USA), stating values as mean ± SEM. We calculated the voltage dependence of activation (V0.5) by measuring tail currents at a voltage pulse of −30 mV (Kv7) or −50 mV (Kv1), then fitted the tail current/voltage relationship with a single Boltzmann function:1 g=(A1−A2)/{1+exp[V1/2−V/Vs]}y+A2 where g is the normalized tail conductance, A1 is the initial value at −∞, A2 is the final value at +∞, V1/2 is the half-maximal voltage of activation and Vs the slope factor. We fitted activation and deactivation kinetics with single exponential functions."}, "TREK-1": {"system": "TREK-1", "details": "read-out: TREK-1 activation EC50; cited from earlier work"}, "Kv1.1 [2]": {"molecular_target": "T1, Kv1.1", "parameters": "method as in PMID 33093824", "details": "cited from earlier work"}, "Kv7.5 [3]": {"molecular_target": "T2, Kv7.5 (Homo sapiens, UniProt Q9NR82)", "T2 sequence (Q9NR82 whole entry)": "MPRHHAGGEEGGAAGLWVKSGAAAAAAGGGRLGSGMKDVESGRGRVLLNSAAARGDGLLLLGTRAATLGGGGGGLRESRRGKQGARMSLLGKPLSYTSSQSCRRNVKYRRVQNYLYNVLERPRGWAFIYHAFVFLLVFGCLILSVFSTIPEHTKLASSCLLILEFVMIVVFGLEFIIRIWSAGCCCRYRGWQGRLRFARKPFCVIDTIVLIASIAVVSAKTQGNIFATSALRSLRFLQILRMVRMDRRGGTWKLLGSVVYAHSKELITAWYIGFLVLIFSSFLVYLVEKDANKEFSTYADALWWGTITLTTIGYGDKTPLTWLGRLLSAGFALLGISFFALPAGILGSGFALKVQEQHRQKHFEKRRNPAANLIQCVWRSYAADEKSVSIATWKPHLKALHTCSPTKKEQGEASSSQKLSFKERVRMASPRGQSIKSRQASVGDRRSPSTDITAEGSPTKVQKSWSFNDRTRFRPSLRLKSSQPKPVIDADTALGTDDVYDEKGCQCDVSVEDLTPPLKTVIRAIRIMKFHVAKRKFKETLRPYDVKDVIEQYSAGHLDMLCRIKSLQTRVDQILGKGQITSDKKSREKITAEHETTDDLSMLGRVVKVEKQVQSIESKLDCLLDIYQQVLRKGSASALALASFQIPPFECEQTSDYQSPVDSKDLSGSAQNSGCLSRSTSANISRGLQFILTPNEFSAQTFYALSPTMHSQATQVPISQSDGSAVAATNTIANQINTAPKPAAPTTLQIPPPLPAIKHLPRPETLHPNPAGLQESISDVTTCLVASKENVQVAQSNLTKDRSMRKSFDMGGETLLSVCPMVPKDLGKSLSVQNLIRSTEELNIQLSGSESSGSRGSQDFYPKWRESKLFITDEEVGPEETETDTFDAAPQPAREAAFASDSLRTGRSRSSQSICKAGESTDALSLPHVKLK", "parameters": "method as in PMID 35997997", "details": "cited from earlier work"}, "Kv7.5 [4]": {"molecular_target": "T2, Kv7.5", "experiment": "TEVC electrophysiology, Xenopus oocytes expressing Kv7.5", "format": "cell-based", "details": "100 µM", "protocol": "as §1, §2"}, "C57BL/6 mice": {"system": "C57BL/6 mice", "parameters": "method as in Abbott et al., 2021 Front. Physiol. 12:777057", "details": "5 mg/kg morphine; ref Abbott et al., 2021 Front. Physiol. 12:777057; cited from earlier work"}}, "data": [{"compound": "Oc1cc(O)c2c(c1)OC(c1ccc(O)c(O)c1)C(O)C2", "note": "(single isomer, unassigned; (+)) [catechin hydrate, (+)-Catechin hydrate]", "values": [{"measurement": "Slope", "setting": "Kv1.1 [1]", "result": "6.10 ± 0.15", "unit": "mV"}, {"measurement": "V0.5 Normalized tail current", "setting": "Kv1.1 [1]", "result": "-37.70 ± 0.45", "unit": "mV"}, {"measurement": "V0.5 non-normalized tail current", "setting": "Kv1.1 [1]", "result": "-39.60 ± 0.63", "unit": "mV"}]}, {"compound": "c1ccc(-c2nnn[nH]2)c(Nc2cccc3c2CCCC3)c1", "note": "[BL-1249, (5,6,7,8-tetrahydro-naphthalen-1-yl)-[2-(1H-tetrazol-5-yl)-phenyl]-amine]", "values": [{"measurement": "EC50", "setting": "TREK-1", "result": 1.5, "unit": "µM"}]}, {"compound": "CS(=O)(=O)Nc1ccc(C(=O)NCc2ccc(Cl)cc2Cl)cc1", "note": "[ML335]", "values": [{"measurement": "EC50", "setting": "TREK-1", "result": 14, "unit": "µM"}]}, {"compound": "Cc1cc(Cl)ccc1OCCNC(=O)c1cccs1", "note": "[ML402]", "values": [{"measurement": "EC50", "setting": "TREK-1", "result": 14, "unit": "µM"}]}, {"compound": "O=C(O)c1cc(O)c(O)c(O)c1", "note": "[gallic acid]", "values": [{"measurement": "effect on voltage dependence of Kv1.1", "setting": "Kv1.1 [2]", "result": "negative-shift"}, {"measurement": "activity on Kv7.5 compared with tannic acid", "setting": "Kv7.5 [3]", "result": "active but less efficacious"}]}, {"compound": "O=C(OC[C@H]1OC(O)[C@@](O)(COC(=O)c2cc(O)c(O)c(O)c2)[C@@H]1O)c1cc(O)c(O)c(O)c1", "note": "(stereo partly drawn) [hamamelitannin]", "values": [{"measurement": "activity on Kv7.5 expressed in oocytes", "setting": "Kv7.5 [4]", "result": "inactive"}, {"measurement": "Slope", "setting": "Kv7.5 [4]; control 7.66 ± 0.33", "result": "7.57 ± 0.17", "unit": "mV"}, {"measurement": "V0.5 Normalized tail current", "setting": "Kv7.5 [4]; control -48.15 ± 1.14", "result": "-47.96 ± 0.99", "unit": "mV"}, {"measurement": "V0.5 non-normalized tail current", "setting": "Kv7.5 [4]; control -50.27 ± 1.37", "result": "-49.87 ± 1.44", "unit": "mV"}, {"measurement": "effect on EM of oocytes expressing Kv1.1", "setting": "Kv1.1 [1]", "result": "hyperpolarized the EM"}, {"measurement": "effect on Kv1.1", "setting": "Kv1.1 [1]", "result": "negative-shifted the voltage dependence of Kv1.1 activation"}, {"measurement": "Slope", "setting": "Kv1.1 [1]", "result": "6.51 ± 0.73", "unit": "mV"}, {"measurement": "V0.5 Normalized tail current", "setting": "Kv1.1 [1]", "result": "-35.11 ± 1.66", "unit": "mV"}, {"measurement": "V0.5 non-normalized tail current", "setting": "Kv1.1 [1]", "result": "-36.25 ± 1.77", "unit": "mV"}]}, {"compound": "CN1CC[C@]23c4c5ccc(O)c4O[C@H]2[C@@H](O)C=C[C@H]3[C@H]1C5", "note": "[morphine]", "values": [{"measurement": "attenuation of early phase paw-licking", "setting": "C57BL/6 mice", "result": 40, "unit": "%"}]}]}
